Source: PubChem BioAssay AID1259407 (Chemical Carcinogenesis Research Information System (CCRIS), 2018)
Calls of active or inactive are those of the source. The rule behind the calls is not given here.

System: CCRIS mutagenicity, Ames/micronucleus/aberration tests
Assay: CCRIS mutagenicity studies

Measured: mutagenic call

O=C(O)CN(CCN(CC(=O)O)CC(=O)O)CC(=O)O
active: Test System: MOUSE LYMPHOMA, Strain/Indicator: L5178Y (TK+/TK-), Metabolic Activation: NONE, Method: SUSPENSION/PLATE active; positive
inactive: Test System: AMES SALMONELLA TYPHIMURIUM, Strain/Indicator: TA97, Metabolic Activation: HAMSTER, LIVER, S-9, AROCLOR 1254 (10%), Method: PREINCUBATION inactive; negative | Test System: AMES SALMONELLA TYPHIMURIUM, Strain/Indicator: TA97, Metabolic Activation: HAMSTER, LIVER, S-9, AROCLOR 1254 (30%), Method: PREINCUBATION inactive; negative | Test System: AMES SALMONELLA TYPHIMURIUM, Strain/Indicator: TA97, Metabolic Activation: NONE, Method: PREINCUBATION inactive; negative | Test System: AMES SALMONELLA TYPHIMURIUM, Strain/Indicator: TA97, Metabolic Activation: RAT, LIVER, S-9, AROCLOR 1254 (10%), Method: PREINCUBATION inactive; negative | Test System: AMES SALMONELLA TYPHIMURIUM, Strain/Indicator: TA97, Metabolic Activation: RAT, LIVER, S-9, AROCLOR 1254 (30%), Method: PREINCUBATION inactive; negative | Test System: AMES SALMONELLA TYPHIMURIUM, Strain/Indicator: TA97, Metabolic Activation: S-9, Method: PREINCUBATION inactive; negative | Test System: AMES SALMONELLA TYPHIMURIUM, Strain/Indicator: TA98, Metabolic Activation: HAMSTER, LIVER, S-9, AROCLOR 1254 (10%), Method: PREINCUBATION inactive; negative | Test System: AMES SALMONELLA TYPHIMURIUM, Strain/Indicator: TA98, Metabolic Activation: HAMSTER, LIVER, S-9, AROCLOR 1254 (30%), Method: PREINCUBATION inactive; negative | Test System: AMES SALMONELLA TYPHIMURIUM, Strain/Indicator: TA98, Metabolic Activation: HAMSTER, LIVER, S-9, AROCLOR 1254, Method: STANDARD PLATE inactive; negative | Test System: AMES SALMONELLA TYPHIMURIUM, Strain/Indicator: TA98, Metabolic Activation: NONE, Method: PREINCUBATION inactive; negative | Test System: AMES SALMONELLA TYPHIMURIUM, Strain/Indicator: TA98, Metabolic Activation: NONE, Method: STANDARD PLATE inactive; negative | Test System: AMES SALMONELLA TYPHIMURIUM, Strain/Indicator: TA98, Metabolic Activation: RAT LIVER S-9, PHENOBARBITAL AND BETA-NAPHTHOFLAVONE, Method: PREINCUBATION inactive; negative | Test System: AMES SALMONELLA TYPHIMURIUM, Strain/Indicator: TA98, Metabolic Activation: RAT, LIVER, S-9, AROCLOR 1254 (10%), Method: PREINCUBATION inactive; negative | Test System: AMES SALMONELLA TYPHIMURIUM, Strain/Indicator: TA98, Metabolic Activation: RAT, LIVER, S-9, AROCLOR 1254 (30%), Method: PREINCUBATION inactive; negative | Test System: AMES SALMONELLA TYPHIMURIUM, Strain/Indicator: TA98, Metabolic Activation: RAT, LIVER, S-9, AROCLOR 1254, Method: STANDARD PLATE inactive; negative | Test System: AMES SALMONELLA TYPHIMURIUM, Strain/Indicator: TA100, Metabolic Activation: HAMSTER, LIVER, S-9, AROCLOR 1254 (10%), Method: PREINCUBATION inactive; negative | Test System: AMES SALMONELLA TYPHIMURIUM, Strain/Indicator: TA100, Metabolic Activation: HAMSTER, LIVER, S-9, AROCLOR 1254 (30%), Method: PREINCUBATION inactive; negative | Test System: AMES SALMONELLA TYPHIMURIUM, Strain/Indicator: TA100, Metabolic Activation: HAMSTER, LIVER, S-9, AROCLOR 1254, Method: STANDARD PLATE inactive; negative | Test System: AMES SALMONELLA TYPHIMURIUM, Strain/Indicator: TA100, Metabolic Activation: NONE, Method: PREINCUBATION inactive; negative | Test System: AMES SALMONELLA TYPHIMURIUM, Strain/Indicator: TA100, Metabolic Activation: NONE, Method: STANDARD PLATE inactive; negative | Test System: AMES SALMONELLA TYPHIMURIUM, Strain/Indicator: TA100, Metabolic Activation: RAT LIVER S-9, PHENOBARBITAL AND BETA-NAPHTHOFLAVONE, Method: PREINCUBATION inactive; negative | Test System: AMES SALMONELLA TYPHIMURIUM, Strain/Indicator: TA100, Metabolic Activation: RAT, LIVER, S-9, AROCLOR 1254 (10%), Method: PREINCUBATION inactive; negative | Test System: AMES SALMONELLA TYPHIMURIUM, Strain/Indicator: TA100, Metabolic Activation: RAT, LIVER, S-9, AROCLOR 1254 (30%), Method: PREINCUBATION inactive; negative | Test System: AMES SALMONELLA TYPHIMURIUM, Strain/Indicator: TA100, Metabolic Activation: RAT, LIVER, S-9, AROCLOR 1254, Method: STANDARD PLATE inactive; negative | Test System: AMES SALMONELLA TYPHIMURIUM, Strain/Indicator: TA102, Metabolic Activation: NONE, Method: PREINCUBATION inactive; negative | Test System: AMES SALMONELLA TYPHIMURIUM, Strain/Indicator: TA102, Metabolic Activation: RAT LIVER S-9, PHENOBARBITAL AND BETA-NAPHTHOFLAVONE, Method: PREINCUBATION inactive; negative | Test System: AMES SALMONELLA TYPHIMURIUM, Strain/Indicator: TA102, Metabolic Activation: S-9, Method: PREINCUBATION inactive; negative | Test System: AMES SALMONELLA TYPHIMURIUM, Strain/Indicator: TA104, Metabolic Activation: NONE, Method: PREINCUBATION inactive; negative | Test System: AMES SALMONELLA TYPHIMURIUM, Strain/Indicator: TA104, Metabolic Activation: RAT LIVER S-9, PHENOBARBITAL AND BETA-NAPHTHOFLAVONE, Method: PREINCUBATION inactive; negative | Test System: AMES SALMONELLA TYPHIMURIUM, Strain/Indicator: TA1535, Metabolic Activation: HAMSTER, LIVER, S-9, AROCLOR 1254 (10%), Method: PREINCUBATION inactive; negative | Test System: AMES SALMONELLA TYPHIMURIUM, Strain/Indicator: TA1535, Metabolic Activation: HAMSTER, LIVER, S-9, AROCLOR 1254 (30%), Method: PREINCUBATION inactive; negative | Test System: AMES SALMONELLA TYPHIMURIUM, Strain/Indicator: TA1535, Metabolic Activation: HAMSTER, LIVER, S-9, AROCLOR 1254, Method: STANDARD PLATE inactive; negative | Test System: AMES SALMONELLA TYPHIMURIUM, Strain/Indicator: TA1535, Metabolic Activation: NONE, Method: PREINCUBATION inactive; negative | Test System: AMES SALMONELLA TYPHIMURIUM, Strain/Indicator: TA1535, Metabolic Activation: NONE, Method: STANDARD PLATE inactive; negative | Test System: AMES SALMONELLA TYPHIMURIUM, Strain/Indicator: TA1535, Metabolic Activation: RAT LIVER S-9, PHENOBARBITAL AND BETA-NAPHTHOFLAVONE, Method: PREINCUBATION inactive; negative | Test System: AMES SALMONELLA TYPHIMURIUM, Strain/Indicator: TA1535, Metabolic Activation: RAT, LIVER, S-9, AROCLOR 1254 (10%), Method: PREINCUBATION inactive; negative | Test System: AMES SALMONELLA TYPHIMURIUM, Strain/Indicator: TA1535, Metabolic Activation: RAT, LIVER, S-9, AROCLOR 1254 (30%), Method: PREINCUBATION inactive; negative | Test System: AMES SALMONELLA TYPHIMURIUM, Strain/Indicator: TA1535, Metabolic Activation: RAT, LIVER, S-9, AROCLOR 1254, Method: STANDARD PLATE inactive; negative | Test System: AMES SALMONELLA TYPHIMURIUM, Strain/Indicator: TA1537, Metabolic Activation: HAMSTER, LIVER, S-9, AROCLOR 1254, Method: STANDARD PLATE inactive; negative | Test System: AMES SALMONELLA TYPHIMURIUM, Strain/Indicator: TA1537, Metabolic Activation: NONE, Method: PREINCUBATION inactive; negative | Test System: AMES SALMONELLA TYPHIMURIUM, Strain/Indicator: TA1537, Metabolic Activation: NONE, Method: STANDARD PLATE inactive; negative | Test System: AMES SALMONELLA TYPHIMURIUM, Strain/Indicator: TA1537, Metabolic Activation: RAT LIVER S-9, PHENOBARBITAL AND BETA-NAPHTHOFLAVONE, Method: PREINCUBATION inactive; negative | Test System: AMES SALMONELLA TYPHIMURIUM, Strain/Indicator: TA1537, Metabolic Activation: RAT, LIVER, S-9, AROCLOR 1254, Method: STANDARD PLATE inactive; negative | Test System: AMES SALMONELLA TYPHIMURIUM, Strain/Indicator: TA1538, Metabolic Activation: HAMSTER, LIVER, S-9, AROCLOR 1254, Method: STANDARD PLATE inactive; negative | Test System: AMES SALMONELLA TYPHIMURIUM, Strain/Indicator: TA1538, Metabolic Activation: NONE, Method: STANDARD PLATE inactive; negative | Test System: AMES SALMONELLA TYPHIMURIUM, Strain/Indicator: TA1538, Metabolic Activation: RAT, LIVER, S-9, AROCLOR 1254, Method: STANDARD PLATE inactive; negative | Test System: E. COLI, Strain/Indicator: WP2 UVRA, Metabolic Activation: HAMSTER, LIVER, S-9, AROCLOR 1254, Method: STANDARD PLATE inactive; negative | Test System: E. COLI, Strain/Indicator: WP2 UVRA, Metabolic Activation: HAMSTER, LIVER, S-9, Method: STANDARD PLATE inactive; negative | Test System: E. COLI, Strain/Indicator: WP2 UVRA, Metabolic Activation: MOUSE, LIVER, S-9, AROCLOR 1254, Method: STANDARD PLATE inactive; negative | Test System: E. COLI, Strain/Indicator: WP2 UVRA, Metabolic Activation: MOUSE, LIVER, S-9, Method: STANDARD PLATE inactive; negative | Test System: E. COLI, Strain/Indicator: WP2 UVRA, Metabolic Activation: NONE, Method: STANDARD PLATE inactive; negative | Test System: E. COLI, Strain/Indicator: WP2 UVRA, Metabolic Activation: RAT, LIVER, S-9, AROCLOR 1254, Method: STANDARD PLATE inactive; negative | Test System: E. COLI, Strain/Indicator: WP2 UVRA, Metabolic Activation: RAT, LIVER, S-9, Method: STANDARD PLATE inactive; negative | Test System: E.COLI, Strain/Indicator: WP2UVRA/PKM101, Metabolic Activation: NONE, Method: PREINCUBATION inactive; negative | Test System: E.COLI, Strain/Indicator: WP2UVRA/PKM101, Metabolic Activation: RAT LIVER S-9, PHENOBARBITAL AND BETA-NAPHTHOFLAVONE, Method: PREINCUBATION inactive; negative | Test System: E.COLI, Strain/Indicator: WP2UVRA, Metabolic Activation: NONE, Method: PREINCUBATION inactive; negative | Test System: E.COLI, Strain/Indicator: WP2UVRA, Metabolic Activation: RAT LIVER S-9, PHENOBARBITAL AND BETA-NAPHTHOFLAVONE, Method: PREINCUBATION inactive; negative | Test System: Mouse lymphoma, Strain/Indicator: L5178Y (tk+/tk-), Metabolic Activation: None, Method: Suspension/plate inactive; negative | Test System: Mouse lymphoma, Strain/Indicator: L5178Y (tk+/tk-), Metabolic Activation: Rat, Liver, S-9, Aroclor 1254, Method: Suspension/plate inactive; negative
